Test results: patent publication US20250018068A1, “4H-IMIDAZO[1,5-B]PYRAZOLE DERIVATIVES FOR DIAGNOSIS” (AC IMMUNE SA, priority 2021, published 2025)
“Also recorded” adds a separate entry of the source. Structures can show the parent of a compound that is named as a salt.

Assays:
[1] = tested on: Tau aggregates; experiment: High resolution micro-autoradiography on AD tissue containing pathological Tau aggregates; format: binding, human
Procedure: (§1) The protocol was adapted from Marquie et al., 2015. Sections were incubated with tritiated example compound 1 ([^3H]-Example-1) at 10 nM or 20 nM or a reference Tau ligand ([^3H]-Tau-Ref at 20 nM for one hour at room temperature (RT). Sections were then washed as follows: One time in ice-cold 50 mM Tris-HCl pH 7.4 buffer for one minute, two times in 70% ice-cold ethanol for one minute, one time in ice-cold 50 mM Tris-HCl pH 7.4 buffer for one minute and finally rinsed briefly in ice-cold distilled water. Sections were subsequently dried and then exposed to Ilford Nuclear Emulsion Type K5 (Agar Scientific, AGP9281) in a light-proof slide storage box. After five days, the sections were developed by immersing them successively in the following solutions: 1.) Ilford Phenisol Developer (1:5 dilution in H2O, Agar Scientific, AGP9106), 2.) Ilfostop solution (1:20 dilution in H2O, Agar Scientific, AGP9104), 3.) Ilford Hypam Fixer (1:5 dilution in H2O, Agar Scientific, AGP9183) and finally rinsed with H2O.
(§2) When indicated, immunostaining was also performed on the same section. For image acquisition, sections were mounted using ProLong Gold Antifade reagent (Invitrogen P36930) and imaged on a Panoramic150 Slide Scanner (3DHistech) with a 20×objective capturing separately brightfield and fluorescent images.

[2] = molecular target: T1, PD brain-derived alpha-synuclein aggregates (Homo sapiens, UniProt P37840); experiment: Saturation binding on PD brain-derived alpha-synuclein aggregates by micro-radiobinding; details: PD brain tissue homogenates
T1 construct: from tissue; host or cells: human PD donor brain, sarkosyl-insoluble pellet
Procedure: The procedure was adapted from the protocol described in Spillantini et al., 1998. Frozen tissue blocks from PD donors were thawed on ice and homogenized using a glass dounce homogenizer. The homogenate was then centrifuged at 11,000×g (12,700 RPM) in an ultracentrifuge (Beckman, XL100K) for 20 minutes at 4° C. using a pre-cooled 70.1 rotor (Beckman, 342184). Pellets were resuspended in extraction buffer [10 mM Tris-HCl pH 7.4, 10% sucrose, […], 1% protease inhibitor (Calbiochem 539131), 1 mM EGTA, 1% phosphatase inhibitor (Sigma P5726 and P0044)] and centrifuged at 15,000×g (14,800 RPM, a 70.1 Ti rotor) for 20 minutes at 4° C. […]
PD brain-derived alpha-synuclein aggregates were spotted onto microarray slides. […] Following exposure, phosphor storage screens were scanned with a laser imaging system (Typhoon FLA 7000) to readout the signal from the radiobinding experiments described above. Quantification of the signal was performed using the ImageJ software package. Non-specific signal was determined with an excess of non-radiolabelled reference ligand (Example-1 at 2 μM) and specific binding was calculated by subtracting the non-specific signal from the total signal. Kd values were calculated in GraphPad Prism7 by applying a nonlinear regression curve fit using a one site specific binding model.

[3] = molecular target: T2, pathological alpha-synuclein aggregates (Homo sapiens, UniProt P37840, G51D); experiment: Autoradiography on frozen human brain sections (specific binding, Kd)
T2 construct: Frozen human brain sections from one familial PD case; from tissue; host or cells: frozen human brain sections: SNCA (G51D) familial PD, PDD, MSA, LBV, non-demented controls
Procedure: (§3) Frozen human brain sections from one familial PD case (alpha-synuclein [SNCA] gene G51D missense mutation), labelled as SNCA (G51D), one PDD case, one MSA case, one LBV case and two non-demented control (NDC) cases were first briefly fixed for 15 minutes at 4° C. with 4% paraformaldehyde (Sigma, 252549) and washed three times for five minutes with PBS (Dulbecco's phosphate buffered saline, Sigma) at RT. All slides were then equilibrated for 20 minutes in 50 mM Tris-HCl pH 7.4 buffer prior to use in the experiment. Each brain section was incubated with a fixed concentration (10 nM) of tritiated example compound 1 ([^3H]-Example-1) or increasing concentrations of [^3H]-Example-1 in the range of 2.5 nM to 80 nM of tritiated compound in Tris-HCl buffer for two hours at RT (Total binding, ‘TB’). To determine non-specific (NSB) binding ([^3H]-Example-1 was mixed with 5 μM of non-radiolabelled compound (Example 1, self-block, ‘NSB’). The slides were washed and then exposed and scanned in a real-time autoradiography system (BeaQuant instrument, ai4R). Specific binding was determined by subtracting the non-specific signal from the total signal. Kd values were calculated in GraphPad Prism7 by applying a nonlinear regression curve fit using a one site specific binding model.

[4] = tested on: pathological alpha-synuclein aggregates; experiment: as above; details: 10 nM
Procedure: as §3

[5] = molecular target: T3, alpha-synuclein aggregates (Lewy bodies and Lewy neurites) (Homo sapiens, UniProt P37840); experiment: High resolution micro-autoradiography, target engagement in alpha-synucleinopathy tissues; format: binding; details: frozen human brain sections, PD, MSA, DLB, LBV, PDD; 10 nM or 20 nM
T3 construct: performed on frozen human brain sections from different alpha-synucleinopathy cases; from tissue; host or cells: frozen human brain sections (PD, PDD, MSA, DLB, LBV)
Procedure: as §1
as §2, with “images. […]” for “images.”

[6] = molecular target: T1, PD brain-derived alpha-synuclein aggregates; experiment: Micro-radiobinding competition assay for the determination of binding affinity; details: human PD brain-derived alpha-synuclein aggregates; for inhibition at 0.1 µM: 100 nM non-radiolabelled compound, read-out: Micro-radiobinding competition assay Competition at 100 nM (%); for inhibition at 0.1 µM / inhibition at 1 µM: competition over tritiated [3H]-Example-1 ligand; for inhibition at 1 µM: 1 μM non-radiolabelled compound, read-out: Micro-radiobinding competition assay Competition at 1 μM (%); for Ki: * = mean of two independent experiments, two donors
Procedure: The procedure was adapted from the protocol described in Spillantini et al., 1998. Frozen tissue blocks from PD donors were thawed on ice and homogenized using a glass dounce homogenizer. The homogenate was then centrifuged at 11,000×g (12,700 RPM) in an ultracentrifuge (Beckman, XL100K) for 20 minutes at 4° C. using a pre-cooled 70.1 rotor (Beckman, 342184). Pellets were resuspended in extraction buffer [10 mM Tris-HCl pH 7.4, 10% sucrose, […], 1% protease inhibitor (Calbiochem 539131), 1 mM EGTA, 1% phosphatase inhibitor (Sigma P5726 and P0044)] and centrifuged at 15,000×g (14,800 RPM, a 70.1 Ti rotor) for 20 minutes at 4° C. Pellets were discarded and sarkosyl (20% stock solution, Sigma L7414) was added to the supernatants to a final concentration of 1% at room temperature for one hour. This solution was then centrifuged at 100,000×g (38,000 RPM, 70.1 Ti rotor) for one hour at 4° C. Pellets containing enriched alpha-synuclein aggregates were resuspended in PBS and stored at −80° C. until use.
PD brain-derived alpha-synuclein aggregates were spotted onto microarray slides. The slides were incubated with [^3H]-alpha-synuclein reference at 6 nM or 20 nM and the example compounds (non-radiolabelled) at 1 μM and 100 nM. In some cases, the non-radiolabelled example compounds were further assessed for a range of different concentrations, varying from 0.05 nM to 2 μM. After incubation, slides were washed and scanned by a real-time autoradiography system (BeaQuant, ai4R). Quantification of the signal was performed by using the Beamage image analysis software (ai4R). Non-specific signal was determined with an excess of non-radiolabelled Example-1 (2 μM) and specific binding was calculated by subtracting the non-specific signal from the total signal. Competition was calculated as percent, where 0% was defined as the specific binding in the presence of vehicle and 100% as the values obtained in the presence of excess of the non-radiolabelled Example-1. Ki values were calculated in GraphPad Prism7 by applying a nonlinear regression curve fit using a one site, specific binding model. All measurements were performed with at least two technical replicates. For compounds tested in more than one experiment, the mean of the replicates or Ki values in independent experiments is reported.
Results: Example compounds were assessed for their potency to compete with the binding of [^3H]-reference alpha-synuclein ligand to PD patient brain-derived alpha-synuclein aggregates. Results of the micro-radiobinding competition assay for the example compounds tested are shown in Table 3 as: % competition at 1 μM and 100 nM.
Table 3: Assessment of binding affinity by micro-radiobinding competition assay on human PD brain-derived alpha-synuclein aggregates. Percent (%) competition over the tritiated [^3H]-Example-1 ligand in the presence of 1 μM and 100 nM of example compounds 1-9. Ki values are also shown for selected example compounds. *, mean of Ki values in two independent experiments using PD brain-derived homogenates from two different donors.

[7] = molecular target: T4, Abeta pathological aggregates (Homo sapiens, UniProt P05067); experiment: Radiobinding competition assay on AD brain homogenates, displacement of [3H]-Abeta-Ref; format: binding
T4 construct: Abeta pathological aggregates present in the human AD brain homogenates; from tissue; host or cells: human AD donor brain, Triton/sucrose-insoluble fraction
Procedure: The procedure was adapted from the protocol described in Bagchi et al., 2013. Frozen tissue blocks from AD donors were thawed on ice and homogenized in high salt buffer (50 mM Tris-HCl pH 7.5, 0.75M NaCl, 5 mM EDTA) supplemented with protease inhibitors (Complete; Roche 11697498001) at 4° C. using a glass Dounce homogenizer. The homogenate was centrifuged at 100,000×g (38,000 RPM) in an ultracentrifuge (Beckman, XL100K) for one hour at 4° C. using a pre-cooled 70.1 rotor (Beckman, 342184). Pellets were resuspended in high salt buffer supplemented with 1% Triton X-100 and homogenized at 4° C. using a glass Dounce homogenizer. […]
A fixed concentration of AD insoluble fraction was incubated with a tritiated reference Abeta ligand ([^3H]-Abeta-Ref) at 10 nM and increasing concentrations of non-radiolabelled example compound 1 in the range of […] to 2 μM for two hours at RT. […] The filters were analyzed on a Microbeta2 scintillation counter (PerkinElmer). Non-specific signal was determined with an excess of non-radiolabelled reference ligand (2 μM) and specific binding was calculated by subtracting the non-specific signal from the total signal. Competition was calculated as percent, where 0% was defined as the specific binding in the presence of vehicle and 100% as the values obtained in the presence of excess of the non-radiolabelled reference ligand. […]

T4 sequence (P05067 672-713 limits assumed): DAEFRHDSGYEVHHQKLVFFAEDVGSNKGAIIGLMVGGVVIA

| Kd [2] [nM] | Autoradiography signal in a genetic PD case ([3]; 2.5 nM to 80 nM, SNCA (G51D) brain sections) | Kd ([3]; human brain tissue sections, familial PD case (SNCA G51D missense mutation), autoradiography) [nM] | Autoradiographic signal in non-demented control cases ([4]; non-demented control (NDC) brain sections) | Target engagement in alpha-synucleinopathy tissues by autoradiography ([4]; one PDD, one LBV and one MSA case) | Target engagement on Lewy bodies and Lewy neurites (silver grains co-localized with a-syn-pS129) [5] | Structure (SMILES) | Selectivity for alpha-synuclein over Tau pathological aggregates ([1]; AD brain tissue) | Target engagement on Tau aggregates in AD brain tissue ([1]; AD tissue, compared to reference Tau ligand [3H]-Tau-Ref) | inhibition at 0.1 µM [6] [%] | inhibition at 1 µM [6] [%] | Ki [6] [nM] | Ki ([7]; displacement of [3H]-Abeta-Ref (10 nM) on AD brain-derived homogenates) [nM] | Selectivity for alpha-synuclein over Abeta pathological aggregates ([7]; human AD brain homogenates versus PD brain binding affinity) |
| --- | --- | --- | --- | --- | --- | --- | --- | --- | --- | --- | --- | --- | --- |
| 18 | dose-dependent autoradiography signal | 44 | very weak | displayed target engagement | strong target engagement | [3H]c1cncc(N2Cc3cc(-c4cnc(N5CC[C@H](F)C5)c([3H])c4)nn3C2=O)c1 [[^3H]-Example-1] | good selectivity for alpha-synuclein over Tau | did not display specific target engagement; also recorded: No accumulation of silver grains | – | – | – | – | – |
| – | – | – | – | – | – | O=C1N(c2cccnc2)Cc2cc(-c3cnc(N4CC[C@H](F)C4)c(F)c3)nn21 [Example 13, (S)-2-(5-fluoro-6-(3-fluoropyrrolidin-1-yl)pyridin-3-yl)-5-(pyridin-3-yl)-4,5-dihydro-6H-imidazo[1,5-b]pyrazol-6-one hydrogen chloride salt] | – | – | 55 | 71 | 101 | – | – |
| – | – | – | – | – | – | O=C1N(c2cccnc2)Cc2cc(-c3ccc(N4CC[C@H](F)C4)nc3)nn21 [Example 1, (S)-2-(6-(3-fluoropyrrolidin-1-yl)pyridin-3-yl)-5-(pyridin-3-yl)-4H-imidazo[1,5-b]pyrazol-6(5H)-one hydrochloride] | – | – | 56 | 91 | 69 | 360 | good selectivity |
